{"source": "patent US12479847B2", "about": "(DANA-FARBER CANCER INSTITUTE, INC., priority 2019, dated 2025)", "key": {"panel of 468 kinases [1]": {"molecular_target": "T1, panel of 468 kinases (Homo sapiens, UniProt Q13546)", "T1 construct": "purchased KINOMEscan (ScanMAX) service", "T1 sequence (Q13546 1-671)": "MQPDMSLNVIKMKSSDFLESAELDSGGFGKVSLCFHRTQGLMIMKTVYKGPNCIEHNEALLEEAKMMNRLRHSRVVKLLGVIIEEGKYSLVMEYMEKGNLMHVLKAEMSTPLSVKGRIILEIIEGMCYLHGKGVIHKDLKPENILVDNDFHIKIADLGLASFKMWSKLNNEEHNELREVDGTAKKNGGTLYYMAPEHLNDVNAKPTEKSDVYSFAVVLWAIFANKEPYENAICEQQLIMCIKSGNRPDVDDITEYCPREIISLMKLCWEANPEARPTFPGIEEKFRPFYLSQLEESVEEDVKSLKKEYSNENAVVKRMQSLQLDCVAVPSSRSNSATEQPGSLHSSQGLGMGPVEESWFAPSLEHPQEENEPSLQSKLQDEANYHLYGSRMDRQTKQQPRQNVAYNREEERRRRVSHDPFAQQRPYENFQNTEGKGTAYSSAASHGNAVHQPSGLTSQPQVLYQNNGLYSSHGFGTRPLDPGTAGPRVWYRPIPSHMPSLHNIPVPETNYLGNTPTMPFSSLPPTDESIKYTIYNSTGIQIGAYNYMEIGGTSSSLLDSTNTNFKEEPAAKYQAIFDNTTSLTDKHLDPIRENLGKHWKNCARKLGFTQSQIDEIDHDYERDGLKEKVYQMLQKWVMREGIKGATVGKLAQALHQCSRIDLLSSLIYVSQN", "test": "KINOMEscan (ScanMAX) kinase profiling", "type": "binding", "conditions": "RIPK1; 1 μM; read-out: % control"}, "panel of 468 kinases [2]": {"molecular_target": "T2, panel of 468 kinases (Homo sapiens, UniProt Q86V86)", "T2 construct": "purchased KINOMEscan (ScanMAX) service", "test": "KINOMEscan (ScanMAX) kinase profiling", "type": "binding", "conditions": "PIM3; 1 μM; read-out: % control"}, "panel of 468 kinases [3]": {"molecular_target": "T3, panel of 468 kinases (Homo sapiens, UniProt Q9H2X6)", "T3 construct": "purchased KINOMEscan (ScanMAX) service", "T3 sequence (Q9H2X6 whole entry)": "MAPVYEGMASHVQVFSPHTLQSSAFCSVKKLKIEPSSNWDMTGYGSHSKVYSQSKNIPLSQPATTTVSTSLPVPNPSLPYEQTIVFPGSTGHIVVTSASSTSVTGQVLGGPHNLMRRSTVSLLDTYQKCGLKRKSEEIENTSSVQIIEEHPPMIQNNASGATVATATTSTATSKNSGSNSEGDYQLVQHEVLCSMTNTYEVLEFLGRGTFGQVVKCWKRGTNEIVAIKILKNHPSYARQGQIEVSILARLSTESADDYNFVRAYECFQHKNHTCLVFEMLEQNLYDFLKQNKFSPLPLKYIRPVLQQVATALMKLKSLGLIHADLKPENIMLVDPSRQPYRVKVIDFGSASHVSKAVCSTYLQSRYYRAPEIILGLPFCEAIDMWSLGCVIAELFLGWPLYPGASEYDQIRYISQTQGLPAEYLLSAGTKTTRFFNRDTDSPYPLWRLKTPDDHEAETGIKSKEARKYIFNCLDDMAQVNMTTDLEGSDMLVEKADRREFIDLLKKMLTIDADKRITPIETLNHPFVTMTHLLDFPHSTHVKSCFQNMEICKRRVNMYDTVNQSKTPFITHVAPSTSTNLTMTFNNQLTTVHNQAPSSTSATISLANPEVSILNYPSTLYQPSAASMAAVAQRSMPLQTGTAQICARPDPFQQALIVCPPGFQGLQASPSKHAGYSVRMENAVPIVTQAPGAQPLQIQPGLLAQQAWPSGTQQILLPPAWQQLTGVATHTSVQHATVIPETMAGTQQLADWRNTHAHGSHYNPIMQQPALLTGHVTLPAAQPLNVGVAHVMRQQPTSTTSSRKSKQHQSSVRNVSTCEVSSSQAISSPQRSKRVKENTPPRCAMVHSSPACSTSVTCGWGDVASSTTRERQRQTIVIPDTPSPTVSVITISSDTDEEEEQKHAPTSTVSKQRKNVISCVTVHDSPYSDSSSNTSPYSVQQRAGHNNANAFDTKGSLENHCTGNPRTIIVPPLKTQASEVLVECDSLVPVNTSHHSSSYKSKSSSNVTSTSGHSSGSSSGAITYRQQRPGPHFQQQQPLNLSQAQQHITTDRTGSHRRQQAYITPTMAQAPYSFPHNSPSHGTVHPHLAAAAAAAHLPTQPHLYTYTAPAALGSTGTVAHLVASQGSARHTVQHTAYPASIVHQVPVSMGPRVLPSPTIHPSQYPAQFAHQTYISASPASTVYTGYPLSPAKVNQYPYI", "test": "KINOMEscan (ScanMAX) kinase profiling", "type": "binding", "conditions": "HIPK2; 1 μM; read-out: % control"}, "wild-type LRKK2": {"molecular_target": "T4, wild-type LRKK2 (Mus musculus, UniProt Q5S006)", "T4 construct": "endogenous in cells; host or cells: NIH-3T3", "T4 sequence (Q5S006 whole entry)": "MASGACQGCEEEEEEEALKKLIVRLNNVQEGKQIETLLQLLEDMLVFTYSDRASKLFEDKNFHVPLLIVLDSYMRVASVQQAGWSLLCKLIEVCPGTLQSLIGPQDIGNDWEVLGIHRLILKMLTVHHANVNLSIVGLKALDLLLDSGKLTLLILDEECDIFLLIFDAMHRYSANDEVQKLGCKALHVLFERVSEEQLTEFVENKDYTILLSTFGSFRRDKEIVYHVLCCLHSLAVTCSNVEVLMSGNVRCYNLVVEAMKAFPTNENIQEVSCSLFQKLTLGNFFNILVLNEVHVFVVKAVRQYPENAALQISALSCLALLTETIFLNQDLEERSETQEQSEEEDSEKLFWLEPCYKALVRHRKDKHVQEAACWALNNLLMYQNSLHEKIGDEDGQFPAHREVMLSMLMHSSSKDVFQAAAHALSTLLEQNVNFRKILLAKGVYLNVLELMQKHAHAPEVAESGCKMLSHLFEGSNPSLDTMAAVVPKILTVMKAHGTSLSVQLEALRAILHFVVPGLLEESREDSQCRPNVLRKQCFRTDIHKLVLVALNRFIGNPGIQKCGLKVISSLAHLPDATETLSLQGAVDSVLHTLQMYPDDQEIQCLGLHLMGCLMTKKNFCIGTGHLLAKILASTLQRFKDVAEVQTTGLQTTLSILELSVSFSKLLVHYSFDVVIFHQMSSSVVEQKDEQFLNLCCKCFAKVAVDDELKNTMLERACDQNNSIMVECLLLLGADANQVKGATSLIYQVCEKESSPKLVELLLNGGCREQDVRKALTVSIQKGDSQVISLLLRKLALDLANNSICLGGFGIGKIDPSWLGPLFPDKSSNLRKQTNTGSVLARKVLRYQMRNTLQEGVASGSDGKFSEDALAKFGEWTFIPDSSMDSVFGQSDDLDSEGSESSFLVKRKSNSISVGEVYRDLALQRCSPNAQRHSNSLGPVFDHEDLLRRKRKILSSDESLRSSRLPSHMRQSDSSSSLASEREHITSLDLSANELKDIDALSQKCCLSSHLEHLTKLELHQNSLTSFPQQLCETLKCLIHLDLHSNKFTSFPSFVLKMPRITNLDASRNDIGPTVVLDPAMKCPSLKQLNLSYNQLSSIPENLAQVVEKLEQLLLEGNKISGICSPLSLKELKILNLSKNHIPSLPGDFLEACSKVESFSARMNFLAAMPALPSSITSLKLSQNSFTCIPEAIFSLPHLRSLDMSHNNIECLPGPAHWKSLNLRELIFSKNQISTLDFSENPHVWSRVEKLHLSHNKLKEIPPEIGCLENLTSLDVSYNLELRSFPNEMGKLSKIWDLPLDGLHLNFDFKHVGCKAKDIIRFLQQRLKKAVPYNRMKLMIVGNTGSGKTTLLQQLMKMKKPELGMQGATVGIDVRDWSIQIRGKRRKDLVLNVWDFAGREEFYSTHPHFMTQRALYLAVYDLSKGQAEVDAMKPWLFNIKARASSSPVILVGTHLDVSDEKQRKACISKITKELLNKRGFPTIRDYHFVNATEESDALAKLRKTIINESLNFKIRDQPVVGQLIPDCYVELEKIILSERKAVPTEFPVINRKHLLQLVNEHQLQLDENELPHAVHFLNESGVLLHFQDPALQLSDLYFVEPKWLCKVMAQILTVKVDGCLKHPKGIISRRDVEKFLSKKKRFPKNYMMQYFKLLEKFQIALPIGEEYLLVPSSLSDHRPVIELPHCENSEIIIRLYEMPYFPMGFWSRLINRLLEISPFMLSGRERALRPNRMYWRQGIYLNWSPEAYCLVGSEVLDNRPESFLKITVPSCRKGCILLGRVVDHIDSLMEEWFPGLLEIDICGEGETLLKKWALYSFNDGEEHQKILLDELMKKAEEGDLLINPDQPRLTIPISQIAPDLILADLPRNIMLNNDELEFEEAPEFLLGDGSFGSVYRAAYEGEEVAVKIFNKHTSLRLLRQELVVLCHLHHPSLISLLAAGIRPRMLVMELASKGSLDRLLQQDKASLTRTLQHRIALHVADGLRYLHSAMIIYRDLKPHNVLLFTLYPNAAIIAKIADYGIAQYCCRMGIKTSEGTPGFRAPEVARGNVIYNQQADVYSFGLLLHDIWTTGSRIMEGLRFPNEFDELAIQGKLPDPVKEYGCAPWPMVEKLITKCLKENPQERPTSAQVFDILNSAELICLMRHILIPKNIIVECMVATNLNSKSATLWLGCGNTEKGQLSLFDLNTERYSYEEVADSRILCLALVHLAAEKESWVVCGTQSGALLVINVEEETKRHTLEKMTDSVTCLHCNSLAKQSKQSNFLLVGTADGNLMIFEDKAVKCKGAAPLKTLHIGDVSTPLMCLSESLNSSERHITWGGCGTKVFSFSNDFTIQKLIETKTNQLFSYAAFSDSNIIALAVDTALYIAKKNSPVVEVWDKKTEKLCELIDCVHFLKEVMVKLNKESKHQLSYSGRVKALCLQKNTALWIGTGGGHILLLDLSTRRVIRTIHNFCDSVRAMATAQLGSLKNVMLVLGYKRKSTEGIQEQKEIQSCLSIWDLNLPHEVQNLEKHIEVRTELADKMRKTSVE", "test": "LRRK2 immunoblot, phosphorylation of Ser935, NIH-3T3 cell lysates", "type": "cell-based", "conditions": "FIG. 1", "description": "Cell lysates were extracted from the NIH-3T3 cell pellet using lysis buffer (40 mM Tris-HCl pH 8.0, 120 mM NaCl, 0.10% Nonidet™-P40) supplemented with protease inhibitors. Proteins in whole-cell lysates were separated by SDS-PAGE and transferred to an Amersham™ nitrocellulose membrane (Amersham, UK). Nitrocellulose membranes were blocked with 5% skim milk in phosphate-buffered saline containing Tween 20 and incubated with primary antibodies overnight at 4° C. The blots were then incubated with the appropriate horseradish peroxidase (HRP)-conjugated secondary antibodies and proteins were visualized by enhanced chemiluminescence, according to the manufacturer's protocol (Amersham™ Western blotting). Secondary antibodies, anti-rabbit IgG-HRP were purchased from Cell Signaling technology. Immunoblot film were scanned on a LAS500 scanner, and images were managed with Adobe Photoshop"}}}
{"smiles": "CNc1nc(Nc2ccc(C(=O)N3CCC(N4CCOCC4)CC3)c3c2OCO3)nc2[nH]cc(Cl)c12", "note": "[Compound 75, (7-((5-chloro-4-(methylamino)-7H-pyrrolo[2,3-d]pyrimidin-2-yl)amino)benzo[d][1,3]dioxol-4-yl)(4-morpholinopiperidin-1-yl)methanone]", "values": [{"measurement": "remaining binding at 1 µM", "setting": "panel of 468 kinases [1]", "value": 89, "unit": "%"}, {"measurement": "remaining binding at 1 µM", "setting": "panel of 468 kinases [2]", "value": 100, "unit": "%"}, {"measurement": "remaining binding at 1 µM", "setting": "panel of 468 kinases [3]", "value": 66, "unit": "%"}]}
{"smiles": "CNc1nc(Nc2ccc(S(=O)(=O)N3CCC(N4CCOCC4)CC3)cc2OC)nc2[nH]cc(Cl)c12", "note": "[Compound 12, 5-chloro-N2-(2-methoxy-4-((4-morpholinopiperidin-1-yl)sulfonyl)phenyl)-N4-methyl-7H-pyrrolo[2,3-d]pyrimidine-2,4-diamine]", "values": [{"measurement": "remaining binding at 1 µM", "setting": "panel of 468 kinases [1]", "value": 92, "unit": "%"}, {"measurement": "remaining binding at 1 µM", "setting": "panel of 468 kinases [2]", "value": 100, "unit": "%"}, {"measurement": "remaining binding at 1 µM", "setting": "panel of 468 kinases [3]", "value": 100, "unit": "%"}]}
{"smiles": "CNc1nc(Nc2ccc(P3(=O)CCN(C4CCOCC4)CC3)cc2OC)nc2[nH]cc(Cl)c12", "note": "[Compound 77, 4-(4-((5-chloro-4-(methylamino)-7H-pyrrolo[2,3-d]pyrimidin-2-yl)amino)-3-methoxyphenyl)-1-(tetrahydro-2H-pyran-4-yl)-1,4-azaphosphinane 4-oxide]", "values": [{"measurement": "inhibition of the phosphorylation of Ser935 in wild-type LRKK2", "setting": "wild-type LRKK2", "value": "inhibited the phosphorylation of Ser935 in wild-type LRKK2 with potency similar to known LRRK2 inhibitor LRRK2-IN-1"}, {"measurement": "remaining binding at 1 µM", "setting": "panel of 468 kinases [1]", "value": 88, "unit": "%"}, {"measurement": "remaining binding at 1 µM", "setting": "panel of 468 kinases [2]", "value": 100, "unit": "%"}, {"measurement": "remaining binding at 1 µM", "setting": "panel of 468 kinases [3]", "value": 95, "unit": "%"}]}
